Test system: Wistar (Crl:WI(Han)) rats
Test: Mass spectrometry-based plasma metabolite profiling of rats treated with known inducers of thyroid function impairment
Type: in vivo, rat
Details: ratio of group medians vs controls
Method in brief: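 Rats aged 10-11 weeks, 5/sex/dose vs 10/sex controls, dosed at low and high levels; retro-orbital plasma taken under isoflurane on days 7, 14 and 28 after 16-20 h fast. Polar and non-polar fractions profiled by GC-MS (derivatised) and LC-MS/MS (MRM plus full scan), normalised to pool samples; Welch t-test by sex and day gives p-values and median ratios.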

[1] = female rats, fh7 (study day 7), Table 3
[2] = female rats, fh14 (study day 14), Table 3
[3] = female rats, fh28 (study day 28), Table 3
[4] = male rats, mh7 (study day 7), Table 4
[5] = male rats, mh14 (study day 14), Table 4
[6] = male rats, mh28 (study day 28), Table 4

For `CCC(CC)Nc1c([N+](=O)[O-])cc(C)c(C)c1[N+](=O)[O-]` [Pendimethalin], the “Arachidonic acid (C20:cis[58,11,14]4)” value [1] was 2.07, the “Behenic acid (C22:0)” value [1] was 2.05 and the Cholesterol [1] was 2.09. The Cysteine [1] was 0.52, the “Docosahexaenoic acid (C22:cis[4,7,10,13,16,19]6)” value (“Docosahexaenoic acid” below) [1] was 1.85 and the Dodecanol [1] was 1.24. For the same compound, the “Eicosanoic acid (C20:0)” value [1] was 1.52, the Glycerol phosphate [1] was 1.91 and the “Heptadecanoic acid (C17:0)” value [1] was 1.35. For the same compound, the “Linoleic acid (C18:cis[9,12]2)” value [1] was 1.38, the “Nervonic acid C24:(cis[15]1)” value [1] was 3.51 and the “Palmitic acid (C16:0)” value [1] was 1.49. The “Sphingomyelin (d18:1, C16:0)” value [1] was 2.01, the “Stearic acid (C18:0)” value [1] was 1.86 and the Threonic acid [1] was 1.85. For the same compound, the “dihomo-gamma-Linolenic acid (C20:cis[8,11,14]3)” value (“dihomo-gamma-Linolenic acid” below) [1] was 1.77, the erythro-Sphingosine [1] was 3.26 and the “gamma-Linolenic acid (C18:cis[6,9,12]3)” value [1] was 1.61. The myo-Inositol-2-phosphate [1] was 2.82, the threo-Sphingosine [1] was 2.95 and the “Arachidonic acid (C20:cis[58,11,14]4)” value [2] was 2.24. The “Behenic acid (C22:0)” value [2] was 1.89, the Cholesterol [2] was 2.17 and the Cysteine [2] was 0.56. The “Docosahexaenoic acid” value [2] was 1.82, the Dodecanol [2] was 1.31 and the “Eicosanoic acid (C20:0)” value [2] was 1.82. The Glycerol phosphate [2] was 1.93, the “Heptadecanoic acid (C17:0)” value [2] was 1.56 and the “Linoleic acid (C18:cis[9,12]2)” value [2] was 1.63. The “Nervonic acid C24:(cis[15]1)” value [2] was 2.62, the “Palmitic acid (C16:0)” value [2] was 1.81 and the “Sphingomyelin (d18:1, C16:0)” value [2] was 1.64. For the same compound, the “Stearic acid (C18:0)” value [2] was 1.97, the Threonic acid [2] was 1.79 and the “dihomo-gamma-Linolenic acid” value [2] was 3.05. For the same compound, the erythro-Sphingosine [2] was 2.60, the “gamma-Linolenic acid (C18:cis[6,9,12]3)” value [2] was 2.29 and the myo-Inositol-2-phosphate [2] was 2.74. For the same compound, the threo-Sphingosine [2] was 2.67, the “Arachidonic acid (C20:cis[58,11,14]4)” value [3] was 2.31 and the “Behenic acid (C22:0)” value [3] was 1.94. The Cholesterol [3] was 2.44, the Cysteine [3] was 0.95 and the “Docosahexaenoic acid” value [3] was 1.85. For the same compound, the Dodecanol [3] was 1.31, the “Eicosanoic acid (C20:0)” value [3] was 1.61 and the Glycerol phosphate [3] was 2.06. The “Heptadecanoic acid (C17:0)” value [3] was 1.63, the “Linoleic acid (C18:cis[9,12]2)” value [3] was 1.36 and the “Nervonic acid C24:(cis[15]1)” value [3] was 2.54. For the same compound, the “Palmitic acid (C16:0)” value [3] was 1.67, the “Sphingomyelin (d18:1, C16:0)” value [3] was 1.58 and the “Stearic acid (C18:0)” value [3] was 2.12. The Threonic acid [3] was 2.05, the “dihomo-gamma-Linolenic acid” value [3] was 2.43 and the erythro-Sphingosine [3] was 2.81. For the same compound, the “gamma-Linolenic acid (C18:cis[6,9,12]3)” value [3] was 2.57, the myo-Inositol-2-phosphate [3] was 2.66 and the threo-Sphingosine [3] was 2.49. The “Behenic acid (C22:0)” value [4] was 1.94, the Cholesterol [4] was 1.67 and the Citrate [4] was 0.86. For the same compound, the Cytosine [4] was 0.79, the “Galactose, lipid fraction” value [4] was 1.81 and the Glycerol phosphate [4] was 2.06. For the same compound, the Glycine [4] was 1.11, the “Lignoceric acid (C24:0)” value [4] was 2.32 and the Mannose [4] was 1.31. The “Nervonic acid C24:(cis[15]1)” value [4] was 2.90, the “Phospha-tidylcholine (C18:0, 18:2)” value [4] was 1.26 and the “Sphingomyelin (d18:1, C16:0)” value [4] was 2.10. The “Stearic acid (C18:0)” value [4] was 1.64, the Threonic acid [4] was 1.39 and the “dihomo-gamma-Linolenic acis (C20:cis[8,11,14]3)” value (shortened to “dihomo-gamma-Linolenic acis”) [4] was 2.92. For the same compound, the erythro-Sphingosine [4] was 2.78, the myo-Inositol-2-phosphate [4] was 3.25 and the threo-Sphingosine [4] was 2.96. The “Behenic acid (C22:0)” value [5] was 1.90, the Cholesterol [5] was 2.03 and the Citrate [5] was 0.83. The Cytosine [5] was 0.92, the “Galactose, lipid fraction” value [5] was 2.03 and the Glycerol phosphate [5] was 2.38. For the same compound, the Glycine [5] was 1.15, the “Lignoceric acid (C24:0)” value [5] was 2.93 and the Mannose [5] was 1.39. For the same compound, the “Nervonic acid C24:(cis[15]1)” value [5] was 2.99, the “Phospha-tidylcholine (C18:0, 18:2)” value [5] was 1.25 and the “Sphingomyelin (d18:1, C16:0)” value [5] was 1.97. For the same compound, the “Stearic acid (C18:0)” value [5] was 2.28, the Threonic acid [5] was 1.47 and the “dihomo-gamma-Linolenic acis” value [5] was 3.53. It also gave an erythro-Sphingosine [5] of 3.33, a myo-Inositol-2-phosphate [5] of 3.57 and a threo-Sphingosine [5] of 3.52. For the same compound, the “Behenic acid (C22:0)” value [6] was 1.79, the Cholesterol [6] was 2.29 and the Citrate [6] was 0.87. The Cytosine [6] was 0.81, the “Galactose, lipid fraction” value [6] was 2.23 and the Glycerol phosphate [6] was 2.34. The Glycine [6] was 1.32, the “Lignoceric acid (C24:0)” value [6] was 2.42 and the Mannose [6] was 1.40. The “Nervonic acid C24:(cis[15]1)” value [6] was 3.07, the “Phospha-tidylcholine (C18:0, 18:2)” value [6] was 1.32 and the “Sphingomyelin (d18:1, C16:0)” value [6] was 2.03. The “Stearic acid (C18:0)” value [6] was 2.12, the Threonic acid [6] was 1.85 and the “dihomo-gamma-Linolenic acis” value [6] was 2.76. It also gave an erythro-Sphingosine [6] of 2.69, a myo-Inositol-2-phosphate [6] of 2.79 and a threo-Sphingosine [6] of 2.73.
In the case of `CCC1(c2ccccc2)C(=O)NC(=O)NC1=O` [Phenobarbital sodium], the “Behenic acid (C22:0)” value [4] is reported as 1.03, the Cholesterol [4] is reported as 1.16 and the Citrate [4] is reported as 0.89. The Cytosine [4] was 1.06, the “Galactose, lipid fraction” value [4] was 1.12 and the Glycerol phosphate [4] was 1.05. The Glycine [4] was 0.95, the “Lignoceric acid (C24:0)” value [4] was 1.21 and the Mannose [4] was 1.08. For the same compound, the “Nervonic acid C24:(cis[15]1)” value [4] was 1.27, the “Phospha-tidylcholine (C18:0, 18:2)” value [4] was 1.13 and the “Sphingomyelin (d18:1, C16:0)” value [4] was 1.30. For the same compound, the “Stearic acid (C18:0)” value [4] was 0.99, the Threonic acid [4] was 1.86 and the “dihomo-gamma-Linolenic acis” value [4] was 1.06. It also gave an erythro-Sphingosine [4] of 1.39, a myo-Inositol-2-phosphate [4] of 1.26 and a threo-Sphingosine [4] of 1.39. The “Behenic acid (C22:0)” value [5] was 1.11, the Cholesterol [5] was 1.09 and the Citrate [5] was 0.93. The Cytosine [5] was 1.07, the “Galactose, lipid fraction” value [5] was 1.18 and the Glycerol phosphate [5] was 1.04. The Glycine [5] was 1.18, the “Lignoceric acid (C24:0)” value [5] was 1.18 and the Mannose [5] was 1.05. For the same compound, the “Nervonic acid C24:(cis[15]1)” value [5] was 1.77, the “Phospha-tidylcholine (C18:0, 18:2)” value [5] was 1.14 and the “Sphingomyelin (d18:1, C16:0)” value [5] was 1.55. For the same compound, the “Stearic acid (C18:0)” value [5] was 1.19, the Threonic acid [5] was 1.95 and the “dihomo-gamma-Linolenic acis” value [5] was 1.03. For the same compound, the erythro-Sphingosine [5] was 1.56, the myo-Inositol-2-phosphate [5] was 1.16 and the threo-Sphingosine [5] was 1.61. For the same compound, the “Behenic acid (C22:0)” value [6] was 1.21, the Cholesterol [6] was 1.18 and the Citrate [6] was 0.96. The Cytosine [6] was 0.98, the “Galactose, lipid fraction” value [6] was 1.06 and the Glycerol phosphate [6] was 1.05. The Glycine [6] was 1.12, the “Lignoceric acid (C24:0)” value [6] was 1.25 and the Mannose [6] was 1.09. The “Nervonic acid C24:(cis[15]1)” value [6] was 1.65, the “Phospha-tidylcholine (C18:0, 18:2)” value [6] was 1.05 and the “Sphingomyelin (d18:1, C16:0)” value [6] was 1.44. For the same compound, the “Stearic acid (C18:0)” value [6] was 1.09, the Threonic acid [6] was 1.88 and the “dihomo-gamma-Linolenic acis” value [6] was 0.96. For the same compound, the erythro-Sphingosine [6] was 1.65, the myo-Inositol-2-phosphate [6] was 1.15 and the threo-Sphingosine [6] was 1.50.

Reference: US20120132797A1, “MEANS AND METHODS FOR DIAGNOSING THYROID DISORDERS” (BASF SE, priority 2009, published 2012)
